The record followed here is patent US20100216791A1, “PYRIDINYLQUINAZOLINAMINE DERIVATIVES AND THEIR USE AS B-RAF INHIBITORS” (ASTRAZENECA, priority 2006, published 2010).

The assay addresses Mutant B-Raf (V600E) enzyme (MT B-Raf) (Homo sapiens, UniProt P15056, V600E). The experiment in a line: biochemical. To be noted: B-Raf Alpha screen comparable to the described assay; phosphorylation of biotinylated HIS-MEK-AVI; results may be an average of two or more results.

Chain of Mutant B-Raf (V600E) enzyme (MT B-Raf) (P15056 whole entry V600E): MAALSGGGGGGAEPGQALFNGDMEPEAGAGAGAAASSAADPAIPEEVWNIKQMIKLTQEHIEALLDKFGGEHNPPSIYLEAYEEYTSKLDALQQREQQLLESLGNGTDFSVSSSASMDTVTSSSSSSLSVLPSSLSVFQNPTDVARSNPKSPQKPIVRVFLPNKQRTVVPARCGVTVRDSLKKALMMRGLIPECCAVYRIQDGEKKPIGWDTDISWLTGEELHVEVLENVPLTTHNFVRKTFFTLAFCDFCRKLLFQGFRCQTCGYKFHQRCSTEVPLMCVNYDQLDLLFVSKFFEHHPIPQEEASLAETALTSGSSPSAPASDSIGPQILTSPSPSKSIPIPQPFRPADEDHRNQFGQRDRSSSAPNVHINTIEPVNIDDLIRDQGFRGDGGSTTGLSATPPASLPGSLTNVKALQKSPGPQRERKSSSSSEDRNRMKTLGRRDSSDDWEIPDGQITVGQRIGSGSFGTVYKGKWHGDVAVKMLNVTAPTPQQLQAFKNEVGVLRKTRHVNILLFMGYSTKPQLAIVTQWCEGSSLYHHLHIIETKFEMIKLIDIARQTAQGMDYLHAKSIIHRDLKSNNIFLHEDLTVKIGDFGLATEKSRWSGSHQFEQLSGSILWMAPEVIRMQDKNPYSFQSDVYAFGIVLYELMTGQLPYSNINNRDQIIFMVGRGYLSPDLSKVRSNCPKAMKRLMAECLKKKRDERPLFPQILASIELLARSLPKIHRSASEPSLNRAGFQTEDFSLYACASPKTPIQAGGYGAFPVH

The term IC50 denotes the point on the concentration scale where inhibition reaches its midpoint. Read a low IC50 as greater potency. For `Nc1ccc(Nc2ncc3cc(-c4ccncc4)ccc3n2)cc1` [Example 137], the IC50 is 80 nM.

In the case of `CS(=O)(=O)c1ccc(Nc2ncc3cc(-c4ccncc4)ccc3n2)cc1` [Example 103, N-[4-(Methylsulfonyl)phenyl]-6-pyridin-4-ylquinazolin-2-amine], inhibition was half-maximal at 62 nM (IC50).

`CN(C)[C@H]1CCN(C(=O)c2ccc(Nc3ncc4cc(-c5ccncc5)ccc4n3)cc2)C1` [Example 118] showed an IC50 of 93 nM.

Compound `O=S(=O)(c1ccc(Nc2ncc3cc(-c4ccncc4)ccc3n2)cc1)N1CCOCC1` [Example 94, N-[4-(Morpholin-4-ylsulfonyl)phenyl]-6-pyridin-4-ylquinazolin-2-amine] gave an IC50 of 300 nM.

Turning to `O=C(NCC1CCCO1)c1ccc(Nc2ncc3cc(-c4ccncc4)ccc3n2)cc1` (stereo not shown) [Example 14, 4-[(6-Pyridin-4-ylquinazolin-2-yl)amino]-N-(tetrahydrofuran-2-ylmethyl)benzamide], the IC50 was 210 nM.

Compound `CN(C)CCOc1ccc(Nc2ncc3cc(-c4ccncc4)ccc3n2)cc1` [Example 40, N-{4-[2-(Dimethylamino)ethoxy]phenyl}-6-pyridin-4-ylquinazolin-2-amine] showed an IC50 of 160 nM.

`CC(NCCCO)c1ccc(Nc2ncc3cc(-c4ccncc4)ccc3n2)cc1` (stereo not shown) [Example 58, 3-[(1-{4-[(6-Pyridin-4-ylquinazolin-2-yl)amino]phenyl}ethyl)amino]propan-1-ol]: the IC50 stood at 36 nM.

Turning to `CNC(=O)c1ccc(Nc2ncc3cc(-c4ccncc4)ccc3n2)cc1` [Example 17, N-Methyl-4-[(6-pyridin-4-ylquinazolin-2-yl)amino]benzamide], the midpoint of inhibition, the IC50, lay at 79 nM. This IC50 is about 2.2-fold higher than that of the compound before.

Compound `CN1CCCC1CCNCc1ccc(Nc2ncc3cc(-c4ccncc4)ccc3n2)cc1` (stereo not shown) [Example 72, N-[4-({[2-(1-Methylpyrrolidin-2-yl)ethyl]amino}methyl)phenyl]-6-pyridin-4-ylquinazolin-2-amine] gave an IC50 of 260 nM. This IC50 lies about 3.3-fold higher than the previous one.

For the compound `COCC(C)NC(=O)c1ccc(Nc2ncc3cc(-c4ccncc4)ccc3n2)cc1` (stereo not shown) [Example 32, N-(2-Methoxy-1-methylethyl)-4-[(6-pyridin-4-ylquinazolin-2-yl)amino]benzamide], the IC50 worked out at 130 nM.

As to `OCc1ccc(Nc2ncc3cc(-c4ccncc4)ccc3n2)cc1` [Example 78, {4-[(6-Pyridin-4-ylquinazolin-2-yl)amino]phenyl}methanol], the IC50 was 66 nM.

`CS(=O)(=O)c1cccc(Nc2ncc3cc(-c4ccncc4)ccc3n2)c1` [Example 104, N-[3-(Methylsulfonyl)phenyl]-6-pyridin-4-ylquinazolin-2-amine] had an IC50 of 160 nM. This IC50 is about 2.4-fold higher than that of the compound before.

The compound `COCCNC(=O)c1ccc(Nc2ncc3cc(-c4ccnc(OC)c4)ccc3n2)cc1` [Example 115] gave an IC50 of 520 nM.

`CC(c1ccc(Nc2ncc3cc(-c4ccncc4)ccc3n2)cc1)N(C)C` (single isomer, unassigned) [Example 140] returned an IC50 of 21 nM.

The compound `CC1(C)OCC(CNC(=O)c2ccc(Nc3ncc4cc(-c5ccncc5)ccc4n3)cc2)O1` (stereo not shown) [Example 16, N-[(2,2-Dimethyl-1,3-dioxolan-4-yl)methyl]-4-[(6-pyridin-4-ylquinazolin-2-yl)amino]benzamide] displayed an IC50 of 200 nM.

`c1cc(Nc2ncc3cc(-c4ccncc4)ccc3n2)cc(N2CCOCC2)c1` [Example 85, N-(3-Morpholin-4-ylphenyl)-6-pyridin-4-ylquinazolin-2-amine] registered an IC50 of 390 nM.

As to `Cc1cc(Nc2ncc3cc(-c4ccncc4)ccc3n2)ccc1C(=O)NCCN1CCCCC1` [Example 51, 2-Methyl-N-(2-(piperidin-1-yl)ethyl)-4-(6-(pyridin-4-yl)quinazolin-2-ylamino)benzamide], half-maximal inhibition (IC50) was put at 130 nM.

`CN1CCN(C(=O)c2ccc(Nc3ncc4cc(-c5ccncc5)ccc4n3)cc2)CC1` [Example 120] came in with an IC50 of 56 nM.

Compound `c1cc(-c2ccc3nc(Nc4ccc5c(c4)OCCO5)ncc3c2)ccn1` [Example 45, N-(2,3-Dihydro-1,4-benzodioxin-6-yl)-6-pyridin-4-ylquinazolin-2-amine] returned an IC50 of 300 nM.
